Results: patent publication US11827639B2, “TDO2 and IDO1 inhibitors” (Genentech, Inc., priority 2017, dated 2023)

biological target: TDO2 (Homo sapiens, UniProt P48775); experiment: cell-based
Sequence (P48775 whole entry): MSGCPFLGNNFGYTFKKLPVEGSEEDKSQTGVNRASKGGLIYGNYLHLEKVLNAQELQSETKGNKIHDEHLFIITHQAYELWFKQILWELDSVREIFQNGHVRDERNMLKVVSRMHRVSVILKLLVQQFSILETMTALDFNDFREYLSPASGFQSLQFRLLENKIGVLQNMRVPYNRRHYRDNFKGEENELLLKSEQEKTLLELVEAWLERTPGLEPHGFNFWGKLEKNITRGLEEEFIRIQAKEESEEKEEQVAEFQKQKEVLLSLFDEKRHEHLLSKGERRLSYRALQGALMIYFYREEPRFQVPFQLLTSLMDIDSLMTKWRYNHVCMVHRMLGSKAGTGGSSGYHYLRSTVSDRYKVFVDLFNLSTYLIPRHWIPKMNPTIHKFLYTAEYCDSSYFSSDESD

Row | EC50 | Compound
1 | 1.1 µM | c1ccc2c(c1)-c1cncn1C2C1CCn2nccc2C1 (single isomer, unassigned) [Example 05a]
2 | 1.7 µM | c1ccc2c(c1)-c1cncn1C2C1CCn2nccc2C1 (single isomer, unassigned) [Example 05b]
3 | 24 µM | c1ccc2c(c1)-c1cncn1C2C1CCn2nccc2C1 (single isomer, unassigned) [Example 05c]
4 | 7.2 µM | NS(=O)(=O)c1cccc(C2c3ccccc3-c3cncn32)c1 (single isomer, unassigned) [Example 07a]
5 | 0.79 µM | NS(=O)(=O)c1cccc(C2c3ccccc3-c3cncn32)c1 (single isomer, unassigned) [Example 07b]
6 | 5.7 µM | CC(O)c1cccc(C2c3ccccc3-c3cncn32)c1 (single isomer, unassigned) [Example 10b]
7 | 5 µM | CC(O)c1cccc(C2c3ccccc3-c3cncn32)c1 (single isomer, unassigned) [Example 10d]
8 | 17 µM | CS(=O)(=O)N1CC2(CC(C3c4ccccc4-c4cncn43)C2)C1 (single isomer, unassigned) [Example 72b]
9 | 10 µM | Cn1cc(C2c3ccccc3-c3cncn32)cn1 (single isomer, unassigned) [Example 79a]
10 | 22 µM | CS(=O)(=O)C1CCC(C2c3ccccc3-c3cncn32)CC1 (single isomer, unassigned) [Example 83a]
11 | 7.1 µM | Cn1cc(C2c3ccccc3-c3cncn32)ccc1=O (single isomer, unassigned) [Example 84a]
12 | 11 µM | OCc1cccc([C@@H]2c3ccccc3-c3cncn32)c1 [Example 01a, (R)-(3-(5H-imidazo[5,1-a]isoindol-5-yl)phenyl)methanol]
13 | 13 µM | OCc1cccc(C2c3ccccc3-c3cncn32)n1 (stereo not shown) [Example 03, (6-(5H-imidazo[5,1-a]isoindol-5-yl)pyridin-2-yl)methanol]
14 | 1.5 µM | OCc1ccc(F)c(C2c3ccccc3-c3cncn32)c1 (stereo not shown) [Example 08, (4-fluoro-3-(5H-imidazo[5,1-a]isoindol-5-yl)phenyl)methanol]
15 | 0.65 µM | NC(=O)c1cccc(C2c3ccccc3-c3cncn32)c1 (stereo not shown) [Example 11, 3-(5H-imidazo[5,1-a]isoindol-5-yl)benzamide]
16 | 2.3 µM | c1ccc2c(c1)-c1cncn1C2CCC1CCCCC1 (stereo not shown) [Example 22, 5-(2-cyclohexylethyl)-5H-imidazo[5,1-a]isoindole]
17 | 14 µM | CCS(=O)(=O)N1CC(C2c3ccccc3-c3cncn32)C1 (stereo not shown) [Example 25, 5-(1-(ethylsulfonyl)azetidin-3-yl)-5H-imidazo[5,1-a]isoindole]
18 | 4.1 µM | c1cncc(C2c3ccccc3-c3cncn32)c1 (stereo not shown) [Example 37, 5-(pyridin-3-yl)-5H-imidazo[5,1-a]isoindole]
19 | 2.5 µM | c1ccc2c(c1)-c1cncn1C2c1ccncc1 (stereo not shown) [Example 41, 5-(pyridin-4-yl)-5H-imidazo[5,1-a]isoindole]
20 | 6.2 µM | N#CC1(CC2c3ccccc3-c3cncn32)CC1 (stereo not shown) [Example 48, 1-((5H-imidazo[5,1-a]isoindol-5-yl)methyl)cyclopropane-1-carbonitrile]
21 | 5.4 µM | NC(=O)C1(CC2c3ccccc3-c3cncn32)CC1 (stereo not shown) [Example 54, 1-((5H-imidazo[5,1-a]isoindol-5-yl)methyl)cyclopropane-1-carboxamide]
22 | 1.4 µM | CCS(=O)(=O)Nc1cc2n(n1)CCC(C1c3ccccc3-c3cncn31)=C2 (stereo not shown) [Example 68, N-(5-(5H-imidazo[5,1-a]isoindol-5-yl)-6,7-dihydropyrazolo[1,5-a]pyridin-2-yl)ethanesulfonamide]
23 | 2.7 µM | c1ccc2c(c1)-c1cncn1C2c1cnn2c1CCC2 (stereo not shown) [Example 87, 5-(5,6-dihydro-4H-pyrrolo[1,2-b]pyrazol-3-yl)-5H-imidazo[5,1-a]isoindole]

biological target: IDO1 (Homo sapiens, UniProt P14902); experiment: cell-based
Sequence (P14902 whole entry): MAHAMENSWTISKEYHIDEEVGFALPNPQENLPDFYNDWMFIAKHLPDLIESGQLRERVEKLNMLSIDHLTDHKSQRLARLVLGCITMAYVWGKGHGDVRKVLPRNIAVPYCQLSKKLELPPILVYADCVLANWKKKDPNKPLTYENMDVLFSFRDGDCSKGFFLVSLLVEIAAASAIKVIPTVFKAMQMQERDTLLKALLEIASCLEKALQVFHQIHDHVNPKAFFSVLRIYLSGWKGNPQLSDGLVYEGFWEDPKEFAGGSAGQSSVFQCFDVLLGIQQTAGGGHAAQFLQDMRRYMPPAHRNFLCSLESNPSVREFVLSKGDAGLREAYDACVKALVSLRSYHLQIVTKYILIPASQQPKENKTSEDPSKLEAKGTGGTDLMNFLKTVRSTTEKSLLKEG

Row | EC50 | Compound
24 | 6.5 µM | NS(=O)(=O)c1cccc(C2c3ccccc3-c3cncn32)c1 (single isomer, unassigned) [Example 07b]
25 | 6.4 µM | NC(=O)C1CCC(C2c3ccccc3-c3cncn32)CC1 (single isomer, unassigned) [Example 60c]
